Measured values taken from the supplement of paper PMC10307832.

Tests used:
Assay in all cases: relative viability (nuclei count vs DMSO), 5 days (fraction); higher = more cells survive
[1] = compound: C[C@]1(c2nc3c(C(N)=O)cccc3[nH]2)CCCN1 [Veliparib] + CS(=O)(=O)CCNCc1ccc(-c2ccc3ncnc(Nc4ccc(OCc5cccc(F)c5)c(Cl)c4)c3c2)o1 [Lapatinib] (partner 2 µM)
How it was run: (§1)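 Values are medians from duplicate plates. Each reflects relative viability, defined as the nuclei count of treated wells over that of vehicle wells. Lung cancer cell lines in 1536-well plates were pin-tool dosed one day after seeding with one drug alone or with a fixed anchor-drug dose plus five library-drug doses (not always all listed) in √10 steps, then fixed, stained and imaged at 4× after 5 days.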

[2] = compound: COC1=CC=C(C=C1)CN2C=CC3=C2C=C(C=C3)C(=O)NO + C[C@]1(O)C[C@@H](c2nc(-c3ccc4ccc(-c5ccccc5)nc4c3)c3c(N)nccn32)C1 [Linsitinib] (partner 1 µM)
How it was run: as §1

[3] = compound: COC1=CC=C(C=C1)CN2C=CC3=C2C=C(C=C3)C(=O)NO + Nc1nc2[nH]cc(CCc3ccc(C(=O)N[C@@H](CCC(=O)O)C(=O)O)cc3)c2c(=O)[nH]1 [Pemetrexed] (partner 0.2 µM)
How it was run: as §1

[4] = compound: COC1=CC=C(C=C1)CN2C=CC3=C2C=C(C=C3)C(=O)NO + Cc1nc(Nc2ncc(C(=O)Nc3c(C)cccc3Cl)s2)cc(N2CCN(CCO)CC2)n1 [Dasatinib] (partner 0.075 µM)
How it was run: as §1

| Cell Line | relative viability ([1]; first compound 0.02 µM) | relative viability ([1]; first compound 0.06325 µM) | relative viability ([1]; first compound 0.2 µM) | relative viability ([1]; first compound 0.6325 µM) | relative viability ([1]; first compound 2 µM) | relative viability ([2]; first compound 0.08 µM) | relative viability ([2]; first compound 0.253 µM) | relative viability ([2]; first compound 0.8 µM) | relative viability ([2]; first compound 2.53 µM) | relative viability ([2]; first compound 8 µM) | relative viability ([3]; first compound 0.253 µM) | relative viability ([3]; first compound 0.8 µM) | relative viability ([3]; first compound 2.53 µM) | relative viability ([3]; first compound 8 µM) | relative viability ([4]; first compound 0.253 µM) | relative viability ([4]; first compound 0.8 µM) | relative viability ([4]; first compound 2.53 µM) | relative viability ([4]; first compound 8 µM) | relative viability ([4]; first compound 0.08 µM) | relative viability ([3]; first compound 0.08 µM) |
| --- | --- | --- | --- | --- | --- | --- | --- | --- | --- | --- | --- | --- | --- | --- | --- | --- | --- | --- | --- | --- |
| LXF-289 | 0.903 | 0.878 | 0.897 | 0.904 | 0.928 | 0.456 | 0.951 | 0.998 | 0.986 | 0.959 | 0.937 | 0.872 | 0.907 | 0.881 | 0.202 | 0.237 | 0.246 | 0.181 |  |  |
| EPLC-272H |  | 0.71 | 0.988 | 1.1 | 0.877 | 0.987 | 1.18 | 1.14 | 1.14 | 1.05 | 0.342 | 0.317 | 0.271 | 0.322 |  | 0.434 | 0.389 | 0.199 | 0.36 |  |
| NCI-H647 | 1.24 | 0.986 | 0.973 | 1 | 1.16 | 0.886 | 1.01 | 1.2 | 1.28 | 1.02 | 0.154 | 0.149 | 0.166 | 0.231 | 0.198 | 0.179 | 0.186 | 0.186 | 0.126 | 0.142 |
| NCI-H2347 | 0.962 | 0.917 | 0.897 | 1.01 | 0.944 | 0.697 | 0.918 | 1.03 | 0.982 | 0.877 | 0.44 | 0.405 | 0.473 | 0.453 | 0.246 | 0.337 | 0.329 | 0.325 | 0.248 | 0.399 |
| NCI-H1792 | 0.922 | 0.719 | 0.962 | 0.983 | 0.832 | 0.535 | 0.62 | 0.636 | 0.539 | 0.425 | 0.952 | 1 | 1.05 | 0.832 | 0.841 | 0.749 | 0.726 | 0.715 | 0.705 | 0.907 |
| A-427 | 1.11 | 1 | 0.994 | 1.04 | 0.802 |  | 1.08 | 1.11 | 1.16 | 1.1 |  | 0.965 | 0.907 | 0.842 | 0.75 | 0.769 | 0.669 | 0.503 |  | 0.923 |
| NCI-H2009 | 0.748 | 0.903 | 0.909 | 0.815 | 1.03 | 1.21 | 1.17 | 1.13 | 1.21 | 1.19 | 1.12 | 1 | 0.983 | 1.1 | 0.284 | 0.326 | 0.276 | 0.197 | 0.281 | 1.05 |
| NCI-H1993 | 0.794 | 0.759 | 0.823 | 0.851 | 0.85 | 0.738 | 0.783 | 0.785 | 0.759 | 0.741 | 0.529 | 0.648 | 0.603 | 0.549 | 0.633 | 0.647 | 0.665 | 0.572 | 0.569 | 0.542 |
| NCI-H2087 | 0.548 | 1.02 | 0.913 | 0.854 | 1.32 | 0.902 | 0.969 | 0.95 | 0.883 | 0.921 | 0.56 | 0.669 | 0.599 | 0.535 | 0.941 | 0.989 | 0.983 | 0.653 | 0.93 | 0.575 |
| LCLC-97TM1 | 0.734 | 0.828 | 1.45 |  | 1.22 |  | 0.212 | 0.225 | 0.206 | 0.156 | 0.192 | 0.182 | 0.191 | 0.144 | 0.667 | 0.938 | 0.801 | 0.721 | 0.294 |  |
| HCC-827 | 0.199 | 0.191 | 0.182 | 0.177 | 0.191 | 0.994 | 0.94 | 0.942 | 0.981 | 0.883 | 0.27 | 0.262 | 0.266 | 0.253 | 0.395 | 0.277 | 0.297 | 0.275 | 0.429 | 0.228 |
| COR-L 105 | 0.35 | 0.371 | 0.327 | 0.362 | 0.388 |  | 0.945 | 0.763 | 0.983 | 0.765 | 1.08 | 1.25 | 0.983 | 1.04 | 0.32 | 0.35 | 0.323 | 0.237 | 0.287 | 0.686 |
| NCI-H1915 | 0.96 | 0.897 | 0.756 | 0.872 | 0.885 | 1.05 | 1.1 | 1.07 | 1.09 | 1.09 | 0.527 | 0.49 | 0.485 | 0.447 | 0.333 | 0.314 | 0.303 | 0.27 | 0.326 | 0.441 |
| NCI-H650 | 0.82 | 0.827 | 0.816 | 0.932 | 0.501 | 0.793 | 0.849 | 0.95 | 0.936 | 0.725 | 1.03 | 0.89 | 0.892 | 0.888 | 0.432 | 0.473 | 0.474 | 0.408 | 0.492 | 0.864 |
| NCI-H1563 | 0.695 | 1.02 | 0.976 | 0.978 | 0.987 | 1.1 | 1.18 | 1.26 | 1.18 | 1.12 | 0.708 | 0.839 | 0.728 | 0.761 | 0.485 | 0.436 | 0.433 | 0.399 | 0.435 | 0.489 |
| NCI-H2228 | 0.968 | 0.889 | 1.11 | 0.96 | 1.06 | 0.77 | 0.733 | 0.971 | 0.578 | 0.58 | 0.347 | 0.336 | 0.343 | 0.298 | 0.458 | 0.662 | 0.497 | 0.413 |  | 0.311 |
| PC-14 | 0.279 | 0.367 | 0.323 | 0.28 | 0.315 | 0.894 | 0.959 | 0.936 | 1.04 | 0.944 | 0.132 | 0.14 | 0.135 | 0.152 | 0.248 | 0.292 | 0.26 | 0.178 | 0.236 | 0.107 |
| RERF-LC-KJ | 0.839 | 0.82 | 0.853 | 0.813 | 0.854 | 0.763 | 0.883 | 0.867 | 0.901 | 0.945 | 0.502 | 0.482 | 0.501 | 0.521 | 0.867 | 0.761 | 0.829 | 0.751 | 0.839 | 0.442 |
| LK-2 | 0.637 | 0.814 | 1.11 | 0.877 | 0.643 |  | 0.45 | 0.579 | 0.515 | 0.533 | 0.207 | 0.354 | 0.353 | 0.243 | 0.358 | 0.335 | 0.298 | 0.293 |  |  |
| NCI-H1793 | 0.548 | 0.555 | 0.788 | 0.572 | 0.762 | 0.934 | 0.941 | 1.09 | 0.976 | 0.86 | 0.943 | 0.997 | 1.08 | 0.698 | 0.354 | 0.382 | 0.4 | 0.412 |  |  |
| NCI-H1944 | 0.825 | 0.748 | 0.627 | 0.72 | 0.767 |  | 1.18 | 1.38 | 1.21 | 1.1 | 0.63 | 0.568 | 0.705 | 0.527 | 0.215 | 0.235 | 0.237 | 0.204 |  |  |
| NCI-H1734 | 1.16 | 0.982 | 0.933 | 0.981 | 1.12 |  | 0.953 | 0.871 | 0.93 | 0.855 | 0.413 | 0.427 | 0.4 | 0.414 | 0.492 | 0.547 | 0.536 | 0.382 |  |  |
| H3255 | 0.227 | 0.209 | 0.27 | 0.289 | 0.261 | 0.853 | 1.01 | 0.943 | 0.859 | 0.835 | 0.519 | 0.614 | 0.583 | 0.583 | 0.417 | 0.348 | 0.389 | 0.276 | 0.41 | 0.576 |
